The supplement of paper PMC10307832

Assays:
Assay in all cases: relative viability (nuclei count vs DMSO), 5 days (fraction); higher = more cells survive
AZ3146 + Tozasertib = compound: CN1CCC(CC1)OC2=CC(=C(C=C2)NC3=NC=C4C(=N3)N(C(=O)N4C)C5CCCC5)OC [AZ3146] + Cc1cc(Nc2cc(N3CCN(C)CC3)nc(Sc3ccc(NC(=O)C4CC4)cc3)n2)n[nH]1 [Tozasertib] (partner 0.1 µM)
In short: (§1)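 Five library-drug doses in √10 steps were combined with a fixed anchor-drug dose, or a single drug was given alone, by pin tool to lung cancer cell lines in 1536-well plates the day after seeding. Nuclei were stained and counted after 5 days. Relative viability is the nuclei count in treated wells over that in vehicle wells, taken as the median of duplicate plates.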

GSK-J4 + Olaparib = compound: CCOC(=O)CCNc1cc(N2CCc3ccccc3CC2)nc(-c2ccccn2)n1 [GSK-J4] + O=C(c1cc(Cc2n[nH]c(=O)c3ccccc23)ccc1F)N1CCN(C(=O)C2CC2)CC1 [Olaparib] (partner 8 µM)
In short: as §1

AZ3146 + Decitabine = compound: CN1CCC(CC1)OC2=CC(=C(C=C2)NC3=NC=C4C(=N3)N(C(=O)N4C)C5CCCC5)OC [AZ3146] + Nc1ncn([C@H]2C[C@H](O)[C@@H](CO)O2)c(=O)n1 [Decitabine] (partner 2 µM)
In short: as §1

GSK-J4 + Lapatinib = compound: CCOC(=O)CCNc1cc(N2CCc3ccccc3CC2)nc(-c2ccccn2)n1 [GSK-J4] + CS(=O)(=O)CCNCc1ccc(-c2ccc3ncnc(Nc4ccc(OCc5cccc(F)c5)c(Cl)c4)c3c2)o1 [Lapatinib] (partner 2 µM)
In short: as §1

Cell Line | relative viability (AZ3146 + Tozasertib; first compound 0.08 µM) | relative viability (AZ3146 + Tozasertib; first compound 0.253 µM) | relative viability (AZ3146 + Tozasertib; first compound 0.8 µM) | relative viability (AZ3146 + Tozasertib; first compound 2.53 µM) | relative viability (AZ3146 + Tozasertib; first compound 8 µM) | relative viability (GSK-J4 + Olaparib; first compound 0.5 µM) | relative viability (GSK-J4 + Olaparib; first compound 1.581 µM) | relative viability (GSK-J4 + Olaparib; first compound 5 µM) | relative viability (GSK-J4 + Olaparib; first compound 15.81 µM) | relative viability (GSK-J4 + Olaparib; first compound 50 µM) | relative viability (AZ3146 + Decitabine; first compound 0.08 µM) | relative viability (AZ3146 + Decitabine; first compound 0.253 µM) | relative viability (AZ3146 + Decitabine; first compound 0.8 µM) | relative viability (AZ3146 + Decitabine; first compound 2.53 µM) | relative viability (AZ3146 + Decitabine; first compound 8 µM) | relative viability (GSK-J4 + Lapatinib; first compound 0.5 µM) | relative viability (GSK-J4 + Lapatinib; first compound 1.581 µM) | relative viability (GSK-J4 + Lapatinib; first compound 5 µM) | relative viability (GSK-J4 + Lapatinib; first compound 15.81 µM) | relative viability (GSK-J4 + Lapatinib; first compound 50 µM)
LXF-289 | 0.194 | 0.189 | 0.158 | 0.216 | 0.189 | 1.03 | 1.01 | 1.14 | 0.991 | 0.891 | 0.356 | 0.382 | 0.403 | 0.432 | 0.388 | 0.899 | 0.821 | 0.907 | 0.934 | 0.866
NCI-H23 | 0.315 | 0.338 | 0.362 | 0.301 | 0.338 | 0.25 | 0.299 | 0.292 | 0.344 | 0.285 | 0.329 | 0.313 | 0.324 | 0.354 | 0.425 | 0.994 |  | 0.772 | 0.778 | 0.674
NCI-H322M | 0.455 | 0.466 | 0.439 | 0.495 | 0.509 | 0.829 | 0.729 | 0.935 | 0.782 | 0.658 | 0.604 | 0.671 | 0.727 | 0.698 | 0.721 | 0.533 | 0.623 | 0.842 | 0.514 | 0.528
NCI-H358 | 0.0884 | 0.107 | 0.105 | 0.123 | 0.12 | 0.574 |  | 0.646 | 0.521 | 0.552 | 0.201 | 0.225 | 0.182 | 0.207 | 0.159 | 0.452 | 0.414 | 0.434 | 0.456 | 0.367
NCI-H460 | 0.277 | 0.422 | 0.118 | 0.0719 | 0.0801 | 0.384 |  |  | 0.433 | 0.343 | 0.38 | 0.475 | 0.445 | 0.467 | 0.178 | 1.05 | 0.924 | 0.809 | 0.955 | 0.364
NCI-H520 | 0.345 | 0.433 | 0.371 | 0.423 | 0.408 | 0.32 | 0.278 | 0.354 | 0.332 | 0.29 | 0.468 | 0.607 | 0.536 | 0.511 | 0.359 | 0.846 | 0.515 | 0.939 | 0.74 | 0.658
NCI-H596 | 0.949 | 0.972 | 0.979 | 0.728 | 0.524 | 0.668 | 0.726 | 0.734 | 0.738 | 0.586 | 0.91 | 0.92 | 1.2 | 1.3 | 1.03 | 1.01 | 1.02 | 1 | 0.866 | 0.916
NCI-H647 | 0.236 | 0.358 | 0.143 | 0.191 | 0.157 | 0.456 | 0.471 | 0.545 | 0.5 | 0.374 | 0.359 | 0.521 | 0.381 | 0.441 | 0.329 | 1.01 | 0.954 | 0.94 | 0.977 | 0.815
NCI-H650 | 0.491 | 0.769 | 0.75 | 0.794 | 0.509 | 0.356 | 0.371 |  | 0.272 | 0.296 | 0.307 | 0.31 | 0.324 | 0.317 | 0.323 | 0.841 | 0.579 | 0.614 | 0.783 | 0.614
NCI-H661 | 0.359 | 0.362 | 0.357 | 0.347 | 0.358 | 0.704 | 0.67 | 0.7 | 0.559 | 0.461 | 0.541 | 0.514 | 0.607 | 0.555 | 0.448 | 0.483 | 0.472 | 0.405 | 0.349 | 0.386
NCI-H727 | 0.546 | 0.495 | 0.455 | 0.575 | 0.439 | 0.597 | 0.596 | 0.581 | 0.718 | 0.472 | 0.806 | 0.913 | 0.714 | 0.766 | 0.783 | 0.827 |  | 0.996 | 0.795 | 0.5
NCI-H838 | 0.249 | 0.252 | 0.254 | 0.263 | 0.183 | 0.696 | 0.653 | 0.514 | 0.568 | 0.411 | 0.46 | 0.474 | 0.422 | 0.501 | 0.281 | 1.25 | 0.748 |  | 0.938 | 0.858
NCI-H1355 | 0.371 | 0.573 | 0.485 | 0.404 | 0.359 | 0.732 | 0.672 | 0.762 | 0.677 | 0.503 | 0.336 | 0.32 | 0.362 | 0.423 | 0.361 | 0.946 | 0.875 | 0.944 | 0.916 | 0.919
NCI-H1395 | 0.647 | 0.832 | 0.888 | 0.791 | 0.522 | 0.435 | 0.48 | 0.399 | 0.45 | 0.406 | 0.642 | 0.746 |  | 0.864 | 0.849 | 1.22 | 0.955 | 0.759 | 0.883 | 0.648
NCI-H1437 | 0.355 | 0.42 | 0.394 | 0.354 | 0.265 | 0.587 | 0.596 | 0.601 | 0.609 | 0.301 | 0.536 | 0.533 | 0.598 | 0.531 | 0.481 | 0.851 | 0.693 | 0.713 | 0.727 | 0.17
NCI-H1650 | 0.345 | 0.349 | 0.242 | 0.314 | 0.255 | 0.852 | 0.739 | 0.871 | 0.639 | 0.509 | 0.377 | 0.44 | 0.366 | 0.44 | 0.367 | 0.751 | 0.174 | 0.731 | 0.634 | 0.327
